Data from patent US10053443B2, “2-phenylbenzofuran derivatives, method for preparing the same and use of the same for treating inflammatory disease” (KOREA RESEARCH INSTITUTE OF BIOSCIENCE AND BIOTECHNOLOGY, priority 2014, dated 2018).
Like-named read-outs stand apart in the source and are kept apart here.

How the values were obtained:
[1] = test system: Raw 264.7 (ATCC TIB71) cells; test: Evaluation of cell survival rate of macrophages (MTT); format: cell-based, mouse; details: Raw 264.7, 10 μM, 24 hours
Experimental: Raw 264.7 (ATCC TIB71) cells, the mouse derived macrophages', were inoculated in a 96-well plate containing DMEM (Dulbecco's modified Eagle medium; Welgene, Korea) supplemented with 10% FBS (Fetal Bovine Serum), 2 mM glutamine, penicillin (100 unit/ml), and streptomycin (100 μg/ml) at the density of 1×10^4 cells/well. The cells were cultured in 5% CO2 at 37° C. for 4 hours to attach the cells onto the plate. Next, the cells were treated with each sample at different concentrations, followed by further culture for 24 hours. To investigate the cell survival rate, 5 mg/ml of MTT (3-(4,5-dimethylthiazol-2-yl)-2,5-diphenyltetrazoliumbromide, Amresco, OH, USA) was distributed thereto (10 μl/well), followed by culture for 4 hours. Then, the supernatant was eliminated. Formazan reduced from MTT by mitochondria was dissolved in 100 μl of DMSO and then OD570 was measured. 0.2% DMSO was used for the negative control.

[2] = test system: Tumor Necrosis Factor Alpha (TNF-alpha); test: Inhibition of TNF-alpha generation in LPS-treated Raw 264.7 cells (ELISA); format: cell-based; details: Mus musculus, RAW264.7; Raw 264.7, LPS treated; read-out: Grades of IC50 on TNF-alpha generation
Experimental: Raw 264.7 cells were distributed by the same manner as described in Experimental Example <2-1>, which were treated with the samples selected due to their high NO and IL-6 suppressing effect at different concentrations. TNF-alpha included in the supernatant was measured by enzyme-linked immunosorbent assay (TNF-alpha ELISA kit, R&D Systems, MN, USA).
(§1) Particularly, 100-fold diluted supernatant was distributed in a 96-well plate on which TNF-alpha antibody was attached, followed by adhesion for 2 hours. The supernatant remaining after the adhesion was washed with a washing buffer. The detection antibody and HRP were adhered on the washed plate for 1 hour. The remaining antibody was washed. Color development was induced by using TMB substrate. The reaction was terminated with sulfuric acid solution. Then, OD450 was measured. TNF-alpha in the supernatant was quantified by using the standard curve made with the standard TNF-alpha included in the kit. TNF-alpha suppression rate was calculated by measuring the same concentration that could inhibit TNF-alpha generation up to 50% in the LPS treated group and the results are shown in Table 9.

[3] = test system: interleukin-6 (IL-6) generation; test: Inhibition of interleukin-6 (IL-6) generation in LPS-treated Raw 264.7 cells (ELISA); format: cell-based, mouse; details: Raw 264.7, LPS treated, read-out: Grades of IC50 on IL-6 generation
Experimental: Raw 264.7 cells were distributed by the same manner as described in Experimental Example <2-1>, and IL-6 included in the supernatant treated with each sample at different concentrations was measured by enzyme-linked immunosorbent assay (IL-6 ELISA kit, BD Bioscience, San Diego, Calif.).
as §1, with “10-fold” for “100-fold”, “IL-6” for “TNF-alpha”, “8.” for “9.”

[4] = test system: Nitrogen Oxide (NO) generation; test: Inhibition of nitrogen oxide (NO) generation in LPS-treated Raw 264.7 cells (Griess); format: cell-based, mouse; details: Raw 264.7, LPS 500 ng/ml, 24 hours
Experimental: Raw 264.7 (ATCC TIB71) cells were inoculated in a 96-well plate containing the same medium as used in Experimental Example 1 at the density of 1×10^5 cells/well. The cells were cultured in 5% CO2 at 37° C. for 4 hours to attach the cells onto the plate. The cells were treated with each sample at different concentrations, followed by further culture for 1 hour. […] were treated thereto at the final concentration of 500 ng/ml, followed by further culture for 24 hours. 100 μl of the supernatant was taken and transferred in a new plate, which was mixed with Griess reagent (a mixture of 1% sulfanilamide, 0.1% N-[1-naphthyl]-ethylenediamine dihydrochloride, and 5% phosphoric acid), followed by reaction for 10 minutes. Then, OD540 was measured. NO generation was quantified by using the sodium nitrite standard curve prepared from […] dissolved in the same medium at different concentrations. Considering the NO generation of the inflammation induced macrophages as 100%, the NO generation inhibition rate was calculated and presented in Table 7.

[5] = Rheumatoid arthritis (collagen-induced) model: weight changes; format: in vivo, mouse; details: DBA/1 CIA mice, 30 mg/kg oral, FIG. 10
Experimental: Bovine type II collagen (100 μg/mouse, Hondrax, Seattle, USA) and complete Freund's adjuvant (Chondrex, Seattle, USA) were intradermally injected in the tail of 7˜9 DBA/1 male mouse. On day 21, 100 μg of bovine type II collagen was mixed with incomplete Freund's adjuvant (IFA), which was injected in the tail of each mouse once again to induce arthritis.

In the case of `COc1cc(CCCO)cc2cc(-c3cc(O)cc(O)c3)oc12` [Example 24, 5-(5-(3-hydroxypropyl)-7-methoxybenzofuran-2-yl)benzene-1,3-diol], the “Grades of cell survival rate (%, in 10 μM)” value (from here on “Grades … (%, in 10 μM)”) [1] is reported as “A (A: 90<A≤100)”, the IC50 [2] is reported as 5 to 10 µM and the IC50 ([3]; Mus musculus, RAW264.7) is reported as 10 to 20 µM. For the same molecule, the “Grades of NO generation inhibition rate (%)” value [4] was “A (A: 35<A≤100)”.
In the case of `COc1ccc(-c2cc3cc(CCCO)cc(OC)c3o2)c(C)c1` [Example 2, 3-(7-methoxy-2-(4-methoxy-2-methylphenyl)benzofuran-5-yl)propane-1-ol], the “Grades … (%, in 10 μM)” value [1] is reported as “A (A: 90<A≤100)”, the IC50 [2] is reported as 3 to 5 µM and the IC50 ([3]; Mus musculus, RAW264.7) is reported as at most 10 µM. The “Grades of NO generation inhibition rate (%)” value [4] was “A (A: 35<A≤100)”.
In the case of `COc1ccc(-c2cc3cc(CCCO)cc(OC)c3o2)cc1O` [Example 23, 5-(5-(3-hydroxypropyl)-7-methoxybenzofuran-2-yl)-2-methoxyphenol], the “Grades … (%, in 10 μM)” value [1] is reported as “B (B: 80<B≤90)”, the IC50 ([3]; Mus musculus, RAW264.7) is reported as 40 to 50 µM and the “Grades of NO generation inhibition rate (%)” value [4] is reported as “C (C: 15<C≤25)”.
With `COc1cc(CCCO)cc2cc(-c3cccc(C)c3)oc12` [Example 3, 3-(7-methoxy-2-m-tolylbenzofuran-5-yl)propane-1-ol] the “Grades … (%, in 10 μM)” value [1] was “A (A: 90<A≤100)”, the IC50 ([3]; Mus musculus, RAW264.7) was 40 to 50 µM and the “Grades of NO generation inhibition rate (%)” value [4] was “A (A: 35<A≤100)”.
In the case of `COc1cc(CCCO)cc(CCc2ccc(C)cc2)c1O` [Example 16, 4-(3-hydroxypropyl)-2-methoxy-6-(4-methylpenethyl)phenol], the “Grades … (%, in 10 μM)” value [1] is reported as “A (A: 90<A≤100)”, the IC50 [3] is reported as 30 to 40 µM and the “Grades of NO generation inhibition rate (%)” value [4] is reported as “C (C: 15<C≤25)”.
With `COc1ccc(CCc2cc(CCCO)cc(OC)c2O)cc1OC` [Example 14, 2-(3,4-dimethoxyphenethyl)-4-(3-hydroxypropyl)-6-methoxyphenol] the “Grades … (%, in 10 μM)” value [1] was “C (C: 70<C≤80)” and the “Grades of NO generation inhibition rate (%)” value [4] was “C (C: 15<C≤25)”.
For `COc1ccc(-c2cc3cc(CCCO)cc(OC)c3o2)cc1OC` [Example 1, 3-[2-(3,4-dimethoxyphenyl)-7-methoxybenzofuran-5-yl]propane-1-ol], the “Grades … (%, in 10 μM)” value [1] was “A (A: 90<A≤100)”, the IC50 [2] was 5 to 10 µM and the IC50 ([3]; Mus musculus, RAW264.7) was 10 to 20 µM. For the same molecule, the “Grades of NO generation inhibition rate (%)” value [4] was “D (D: 5<D≤15)”.
For `COc1cc(CCCO)cc2cc(-c3ccc(O)c(O)c3)oc12` [Example 25, 4-(5-(3-hydroxypropyl)-7-methoxybenzofuran-2-yl)benzene-1,2-diol], the weight change [5] was “no weight change observed”, the “Grades … (%, in 10 μM)” value [1] was “A (A: 90<A≤100)” and the IC50 [2] was 1 to 3 µM. For the same molecule, the IC50 ([3]; Mus musculus, RAW264.7) was at most 10 µM and the “Grades of NO generation inhibition rate (%)” value [4] was “A (A: 35<A≤100)”.
For `COc1ccc(-c2cc3cc(CO)cc(OC)c3o2)cc1OC` [Example 18, [2-(3,4-dimethoxyphenyl)-7-methoxybenzofuran-5-yl]methanol], the “Grades … (%, in 10 μM)” value [1] was “A (A: 90<A≤100)”, the IC50 ([3]; Mus musculus, RAW264.7) was 40 to 50 µM and the “Grades of NO generation inhibition rate (%)” value [4] was “C (C: 15<C≤25)”.
With `COc1ccc(-c2cc3cc(CCO)cc(OC)c3o2)cc1OC` [Example 20, 2-[2-(3,4-dimethoxyphenyl)-7-methoxybenzofuran-5-yl]ethanol] the “Grades … (%, in 10 μM)” value [1] was “B (B: 80<B≤90)”, the IC50 ([3]; Mus musculus, RAW264.7) was 20 to 30 µM and the “Grades of NO generation inhibition rate (%)” value [4] was “A (A: 35<A≤100)”.
In the case of `COc1ccc(-c2cc3cc(CCCOC(C)=O)cc(OC)c3o2)cc1OC` [Example 28, 3-(2-(3,4-dimethoxyphenyl)-7-methoxybenzofuran-5-yl)propyl acetate], the “Grades … (%, in 10 μM)” value [1] is reported as “A (A: 90<A≤100)”, the IC50 [2] is reported as 1 to 3 µM and the IC50 ([3]; Mus musculus, RAW264.7) is reported as 20 to 30 µM. For the same molecule, the “Grades of NO generation inhibition rate (%)” value [4] was “B (B: 25<B≤35)”.
For `COc1cc(-c2cc3cc(CCCO)cc(OC)c3o2)ccc1O` [Example 22, 4-(5-(3-hydroxypropyl)-7-methoxybenzofuran-2-yl)-2-methoxyphenol], the “Grades … (%, in 10 μM)” value [1] was “A (A: 90<A≤100)”, the IC50 [2] was 3 to 5 µM and the IC50 ([3]; Mus musculus, RAW264.7) was at most 10 µM. The “Grades of NO generation inhibition rate (%)” value [4] was “A (A: 35<A≤100)”.
For `COc1cc(CCCO)cc2cc(-c3ccc(N(C)C)cc3)oc12` [Example 9, 3-(2-(4-(dimethylamino)phenyl)-7-methoxybenzofuran-5-yl)propane-1-ol], the “Grades … (%, in 10 μM)” value [1] was “A (A: 90<A≤100)”, the IC50 ([3]; Mus musculus, RAW264.7) was 40 to 50 µM and the “Grades of NO generation inhibition rate (%)” value [4] was “C (C: 15<C≤25)”.
In the case of `COc1cccc(-c2cc3cc(CCCO)cc(OC)c3o2)c1` [Example 5, 3-(7-methoxy-2-(3-methoxyphenyl)benzofuran-5-yl)propane-1-ol], the “Grades … (%, in 10 μM)” value [1] is reported as “A (A: 90<A≤100)”, the IC50 ([3]; Mus musculus, RAW264.7) is reported as 40 to 50 µM and the “Grades of NO generation inhibition rate (%)” value [4] is reported as “C (C: 15<C≤25)”.
With `COc1ccc(-c2cc3cc(CCCO)cc(O)c3o2)cc1OC` [Example 27, 2-(3,4-dimethoxyphenyl)-5-(3-hydroxypropyl)benzofuran-7-ol] the “Grades … (%, in 10 μM)” value [1] was “B (B: 80<B≤90)”, the IC50 ([3]; Mus musculus, RAW264.7) was 20 to 30 µM and the “Grades of NO generation inhibition rate (%)” value [4] was “D (D: 5<D≤15)”.
With `COc1ccc(-c2cc3cc(CCCO)cc(OC)c3o2)cc1` [Example 7, 3-(7-methoxy-2-(4-methoxyphenyl)benzofuran-5-yl)propane-1-ol] the “Grades … (%, in 10 μM)” value [1] was “A (A: 90<A≤100)”, the IC50 ([3]; Mus musculus, RAW264.7) was 40 to 50 µM and the “Grades of NO generation inhibition rate (%)” value [4] was “D (D: 5<D≤15)”.
With `COc1cc(-c2cc3cc(CCCO)cc(OC)c3o2)cc(OC)c1O` [Example 26, 4-(5-(3-hydroxypropyl)-7-methoxybenzofuran-2-yl)-2,6-dimethoxyphenol] the “Grades … (%, in 10 μM)” value [1] was “A (A: 90<A≤100)”, the IC50 [2] was 1 to 3 µM and the IC50 ([3]; Mus musculus, RAW264.7) was at most 10 µM. The “Grades of NO generation inhibition rate (%)” value [4] was “A (A: 35<A≤100)”.
For `COc1cc(CCCO)cc2cc(-c3cccc(F)c3)oc12` [Example 8, 3-(2-(3-fluorophenyl)-7-methoxybenzofuran-5-yl)propane-1-ol], the “Grades … (%, in 10 μM)” value [1] was “A (A: 90<A≤100)”, the IC50 ([3]; Mus musculus, RAW264.7) was 40 to 50 µM and the “Grades of NO generation inhibition rate (%)” value [4] was “C (C: 15<C≤25)”.
For `COc1cc(CCCO)cc2cc(-c3cc(F)cc(F)c3)oc12` [Example 6, 3-[2-(3,5-difluorophenyl)-7-methoxybenzofuran-5-yl]propane-1-ol], the “Grades … (%, in 10 μM)” value [1] was “A (A: 90<A≤100)”, the IC50 [2] was 15 to 17 µM and the IC50 ([3]; Mus musculus, RAW264.7) was 10 to 20 µM. For the same molecule, the “Grades of NO generation inhibition rate (%)” value [4] was “B (B: 25<B≤35)”.
For `COc1cccc(CCc2cc(CCCO)cc(OC)c2O)c1` [Example 17, 4-(3-hydroxypropyl)-2-methoxy-6-(3-methoxypenethyl)phenol], the “Grades … (%, in 10 μM)” value [1] was “B (B: 80<B≤90)”, the IC50 [3] was 40 to 50 µM and the “Grades of NO generation inhibition rate (%)” value [4] was “C (C: 15<C≤25)”.
